Patent US8916599B2, “1H-benz imidazole-5-carboxamides as anti-inflammatory agents” (Orexo AB, priority 2008, dated 2014)

These compounds were tested against T1, recombinant human mPGES-1 (Homo sapiens, UniProt O14684) (assay: mPGES-1 inhibition test (microsomes, PGH2 substrate, HTRF detection of PGE2)). Details: inhibition of mPGES-1 at 10 μM.
T1 construct: made in house; host or cells: Rosetta E. coli (microsomal/membrane fraction)
T1 sequence (O14684 1-152): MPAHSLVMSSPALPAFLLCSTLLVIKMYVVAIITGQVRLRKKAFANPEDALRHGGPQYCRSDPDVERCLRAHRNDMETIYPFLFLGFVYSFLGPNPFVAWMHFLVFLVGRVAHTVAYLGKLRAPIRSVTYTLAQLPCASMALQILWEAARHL
Assay type: biochemical
In short: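 Microsomes from E. coli Rosetta expressing the enzyme, in 0.1 M KPi pH 7.4 with 2.5 mM GSH, were preincubated 25 min at room temperature with inhibitor in DMSO. PGH2 was added, the reaction stopped after one minute with acidified FeCl2, and PGE2 quantified by HTRF after 750-fold dilution.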
`Cn1c(Nc2c(F)cccc2Cl)nc2cc(C(=O)Nc3ccc(Br)cc3)ccc21` [Example 381, N-(4-Bromophenyl)-2-(2-chloro-6-fluorophenylamino)-1-methyl-1H-benzimidazole-5-carboxamide] showed an inhibition at 10 µM of 100%.
`Cc1cccc(Cl)c1Nc1nc2cc(C(=O)Nc3ccc(Br)cc3)ccc2n1C` [Example 382, N-(4-Bromophenyl)-2-(2-chloro-6-methylphenylamino)-1-methyl-1H-benzimidazole-5-carboxamide] showed an inhibition at 10 µM of 100%.
For `COc1cc2[nH]c(Nc3c(Cl)cccc3Cl)nc2cc1C(=O)NCc1ncccc1C(F)(F)F` [Example 383, 2-(2,6-Dichlorophenylamino)-6-methoxy-N-((3-trifluoromethyl-pyridin-2-yl)-methyl)-1H-benzimidazole-5-carboxamide], the inhibition at 10 µM was 100%.
`Cn1c(Nc2c(F)cccc2Cl)nc2cc(C(=O)NC3CCC4(CC3)CC4)c(F)cc21` [Example 384] gave an inhibition at 10 µM of 100%.
`Cn1c(Nc2ccc(F)cc2C(F)(F)F)nc2cc(C(=O)Nc3ccc(Br)cc3)ccc21` [Example 385, N-(4-Bromophenyl)-2-(4-fluoro-2-trifluoromethyl-phenylamino)-1-methyl-1H-benzimidazole-5-carboxamide] was tested, and the inhibition at 10 µM was 99%.
`O=C(NC1CCC2(CC1)CC2)c1cc2nc(Nc3c(Cl)cccc3Cl)[nH]c2cc1F` [Example 387, 2-(2,6-Dichlorophenylamino)-6-fluoro-N-(spiro[2.5]octan-6-yl)-1H-benzimidazole-5-carboxamide] gave an inhibition at 10 µM of 100%.
In the case of `Cn1c(Nc2c(F)cccc2Cl)nc2cc(C(=O)NCCCC3CC3)c(F)cc21` [Example 390, 2-(2-Chloro-6-fluorophenylamino)-N-(3-cyclopropylpropyl)-6-fluoro-1-methyl-1H-benzimidazole-5-carboxamide], the inhibition at 10 µM is reported as 100%.
In the case of `CCCCCNC(=O)c1cc2nc(Nc3c(Cl)cccc3Cl)n(C)c2cc1F` [Example 391, 2-(2,6-Dichlorophenylamino)-6-fluoro-1-methyl-N-pentyl-1H-benzimidazole-5-carboxamide], the inhibition at 10 µM is reported as 100%.
Compound `CCC1CCC(NC(=O)c2cc3nc(Nc4c(F)cccc4Cl)n(C)c3cc2F)C1` (centres unmarked) [Example 392, 2-(2-Chloro-6-fluorophenylamino)-N-(3-ethylcyclopentyl)-6-fluoro-1-methyl-1H-benzimidazole-5-carboxamide] has an inhibition at 10 µM of 100%.
In the case of `O=C(Nc1ccc(Br)cc1)c1cc2[nH]c(Nc3c(Cl)cccc3Cl)nc2c(F)c1F` [Example 395, N-(4-Bromophenyl)-2-(2,6-dichlorophenylamino)-4,5-difluoro-1H-benzimidazole-6-carboxamide], the inhibition at 10 µM is reported as 100%.
`Cn1c(Nc2c(Cl)cccc2Cl)nc2cc(C(=O)NCCC3CCC3)c(F)cc21` [Example 397, N-(2-Cyclobutylethyl)-2-(2,6-dichlorophenylamino)-6-fluoro-1-methyl-1H-benzimidazole-5-carboxamide] showed an inhibition at 10 µM of 99%.
For `Cn1c(Nc2c(Cl)cccc2Cl)nc2cc(C(=O)NCCCC3CC3)c(F)cc21` [Example 398, N-(3-Cyclopropylpropyl)-2-(2,6-dichlorophenylamino)-6-fluoro-1-methyl-1H-benzimidazole-5-carboxamide], the inhibition at 10 µM was 96%.
In the case of `O=C(NC1CCC2(CC1)CC2)c1cc2nc(Nc3c(F)cccc3Cl)[nH]c2cc1F` [Example 399, 2-(2-Chloro-6-fluorophenylamino)-6-fluoro-N-(spiro[2.5]octan-6-yl)-1H-benzimidazole-5-carboxamide], the inhibition at 10 µM is reported as 99%.
In the case of `Cc1cc(Cl)cc(Cl)c1Nc1nc2cc(C(=O)Nc3ccc(Br)cc3)ccc2n1C` [Example 402, N-(4-Bromophenyl)-2-(2,4-dichloro-6-methylphenylamino)-1-methyl-1H-benzimidazole-5-carboxamide], the inhibition at 10 µM is reported as 100%.
`Cn1c(Nc2c(F)cccc2Cl)nc2cc(C(=O)NC3CCCC(C)(C)C3)c(F)cc21` (centres unmarked) [Example 404, 2-(2-Chloro-6-fluorophenylamino)-N-(3,3-dimethylcyclohexyl)-6-fluoro-1-methyl-1H-benzimidazole-5-carboxamide] was tested, and the inhibition at 10 µM was 100%.
For `Cn1c(Nc2c(Cl)cccc2Cl)nc2cc(C(=O)Nc3cccc(Cl)c3)cc(Br)c21` [Example 405, 7-Bromo-N-(3-chlorophenyl)-2-(2,6-dichlorophenylamino)-1-methyl-1H-benzimidazole-5-carboxamide], the inhibition at 10 µM was 100%.
With `COc1cc2[nH]c(Nc3c(Cl)cccc3Cl)nc2cc1C(=O)NCc1ncccc1C1CC1` [Example 407, N-((3-Cyclopropylpyridin-2-yl)-methyl)-2-(2,6-dichlorophenylamino)-6-methoxy-1H-benzimidazole-5-carboxamide] the inhibition at 10 µM was 100%.
Compound `CC(C)CCCNC(=O)c1cc2nc(Nc3c(Cl)cccc3Cl)n(C)c2cc1F` [Example 408, 2-(2,6-Dichlorophenylamino)-6-fluoro-1-methyl-N-(4-methylpentyl)-1H-benzimidazole-5-carboxamide] has an inhibition at 10 µM of 100%.
`CCC1CCC(NC(=O)c2cc3nc(Nc4c(Cl)cccc4Cl)n(C)c3cc2F)C1` (centres unmarked) [Example 412, 2-(2,6-Dichlorophenylamino)-N-(3-ethylcyclopentyl)-6-fluoro-1-methyl-1H-benzimidazole-5-carboxamide] was tested, and the inhibition at 10 µM was 100%.
`Cn1c(Nc2c(Cl)cccc2Cl)nc2cc(C(=O)NC3CCC4(CC4)C3)c(F)cc21` (centres unmarked) [Example 415, 2-(2,6-Dichlorophenylamino)-6-fluoro-1-methyl-N-(spiro[2.4]heptan-5-yl)-1H-benzimidazole-5-carboxamide] was tested, and the inhibition at 10 µM was 100%.
`CCCC[C@@H](C)NC(=O)c1cc2nc(Nc3c(Cl)cccc3Cl)n(C)c2cc1F` [Example 416, (R)-2-(2,6-Dichlorophenylamino)-6-fluoro-N-(hexan-2-yl)-1-methyl-1H-benzimidazole-5-carboxamide] gave an inhibition at 10 µM of 100%.
`Cc1c[n+]([O-])c(NC(=O)c2ccc3nc(Nc4c(Cl)cccc4Cl)[nH]c3c2)cc1Cl` [Example 418, 4-Chloro-2-(2-(2,6-dichlorophenylamino)-1H-benzimidazole-6-carboxamido)-5-methylpyridine 1-oxide] was tested, and the inhibition at 10 µM was 100%.
In the case of `Cn1c(Nc2c(Cl)cccc2Cl)nc2cc(C(=O)NC3CCC4(CC3)CC4)c(F)cc21` [Example 419, 2-(2,6-Dichlorophenylamino)-6-fluoro-1-methyl-N-(spiro[2.5]octan-6-yl)-1H-benzimidazole-5-carboxamide], the inhibition at 10 µM is reported as 100%.
`Cn1c(Nc2c(Cl)cc(F)cc2Cl)nc2cc(C(=O)NC3CCC(C)(C)CC3)ccc21` [Example 420, 2-(2,6-Dichloro-4-fluorophenylamino)-N-(4,4-dimethylcyclohexyl)-1-methyl-1H-benzimidazole-5-carboxamide] gave an inhibition at 10 µM of 100%.
Work on `Cc1cnc(NC(=O)c2cc3nc(Nc4c(Cl)cccc4Cl)n(C)c3cc2F)cc1C` [Example 421, 2-(2,6-Dichlorophenylamino)-N-(4,5-dimethylpyridin-2-yl)-6-fluoro-1-methyl-1H-benzimidazole-5-carboxamide] yielded an inhibition at 10 µM of 99%.
Compound `Cn1c(Nc2c(Cl)cccc2Cl)nc2cc(C(=O)NCc3ncccc3C3CC3)c(F)cc21` [Example 422, N-((3-Cyclopropylpyridin-2-yl)methyl)-2-(2,6-dichlorophenylamino)-6-fluoro-1-methyl-1H-benzimidazole-5-carboxamide] has an inhibition at 10 µM of 100%.
